Reference: US10865208B2, “ATG7 inhibitors and the uses thereof” (Millennium Pharmaceuticals, Inc., priority 2016, dated 2020)

Target: recombinant human His-ATG7 enzyme (Homo sapiens (Human), UniProt O95352)
Test: ATG7 Enzyme Assay (HTRF/FRET, ATG3-GST and Flag-Gabarap)
Assay type: biochemical
In short: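 HTRF read-out after 2 h at 24° C, using Eu-cryptate anti-Flag and XL-APC anti-GST antibodies in an EDTA stop buffer. The preceding 105 min, 24° C reaction (pH 7.5) held 10 μM ATP, 5 nM each ATG3-GST and Flag-Gabarap, and 0.15 nM human His-ATG7. Values are IC50 or percent inhibition at one concentration.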

recombinant human His-ATG7 enzyme, sequence (O95352 whole entry): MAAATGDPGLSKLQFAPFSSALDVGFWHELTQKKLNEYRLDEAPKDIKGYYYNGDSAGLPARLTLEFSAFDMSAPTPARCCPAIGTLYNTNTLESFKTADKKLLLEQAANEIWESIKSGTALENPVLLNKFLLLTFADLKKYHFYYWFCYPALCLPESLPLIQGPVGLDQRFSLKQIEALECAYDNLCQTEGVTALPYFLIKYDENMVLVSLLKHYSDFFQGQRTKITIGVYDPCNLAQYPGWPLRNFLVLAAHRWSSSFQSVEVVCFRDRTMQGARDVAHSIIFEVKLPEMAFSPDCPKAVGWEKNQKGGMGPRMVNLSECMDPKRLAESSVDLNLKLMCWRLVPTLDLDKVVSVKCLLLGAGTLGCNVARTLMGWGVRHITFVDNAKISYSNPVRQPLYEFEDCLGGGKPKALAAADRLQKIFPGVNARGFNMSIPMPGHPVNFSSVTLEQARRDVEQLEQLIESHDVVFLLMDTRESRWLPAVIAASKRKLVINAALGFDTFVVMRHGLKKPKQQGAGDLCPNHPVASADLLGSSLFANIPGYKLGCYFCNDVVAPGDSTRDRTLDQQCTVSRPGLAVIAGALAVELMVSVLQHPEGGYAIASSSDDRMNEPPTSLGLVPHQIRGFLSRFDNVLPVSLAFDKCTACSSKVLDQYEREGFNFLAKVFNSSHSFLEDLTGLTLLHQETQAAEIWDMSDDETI

SMILES	IC50	inhibition at 0.123 µM (Concentration 0.123 μM, read-out: Percent Inhibition)	inhibition at 0.111 µM (Concentration 0.111 μM, read-out: Percent Inhibition)
Nc1ncnc2c1c(SCc1ccccn1)nn2[C@@H]1O[C@H](COS(N)(=O)=O)[C@@H](O)[C@H]1O [Compound I-59, [(2R,3S,4R,5R)-5-{4-amino-3-[(pyridin-2-ylmethyl)sulfanyl]-1H-pyrazolo[3,4-d]pyrimidin-1-yl}-3,4-dihydroxytetrahydrofuran-2-yl]methyl sulfamate]	20 to 50 nM	75%	–
Nc1ncnc2c1c(SCC1CC1)nn2[C@H]1C[C@H](O)[C@@H](COS(N)(=O)=O)O1 [Compound I-202, [(2R,3S,5R)-5-{4-amino-3-[(cyclopropylmethyl)sulfanyl]-1H-pyrazolo[3,4-d]pyrimidin-1-yl}-3-hydroxytetrahydrofuran-2-yl]methyl Sulfamate]	50 to 100 nM	–	62%
